Results on 8 compounds are retold here after US4596873A, “1,4,5,6,7,8-Hexahydro-2-alkyl-4-aryl-5-oxo-1,7-naphthyridine-3-carboxyl ic acid aromatic esters and pharmaceutically acceptable acid addition salts thereof useful as antihypertensive agents” (American Home Products Corporation, priority 1985, dated 1986).

Test [1] deals with isolated paced intact rabbit atria. The test can be described thus: negative inotropic (cardiac depressant) effect in isolated paced intact rabbit atria. The class given is cell-based. On the procedure: The potential for detrimental cardiac depressant (negative inotropic) effects of the compounds of this invention was assessed in isolated paced intact rabbit atria. Left and right atria (with nodal tissue excised) were suspended vertically in a jacketed (30° C.) organ bath containing 50 ml of PSS and aerated with 95% O2 /5% CO2. Muscles (N=5-9/compound) were stimulated at a frequency of 3 Hz with a WPI stimulator for a 60 minute equilibration period. Changes in isometric force were recorded as described for the aortic smooth muscle experiments,supra. Following equilibration, the test compound (or as a control, the ethanol vehicle) was added to the organ bath in a cumulative manner from doses ranging from 10^-9 M to 10^-5 M (10^-5 M was the maximum dose which could be attained due to the depressant effect of ethanol) and effects on developed isometric force were determined.
(§1) The following examples illustrate the preparation of a representative number of compounds of this invention. After each example, and Ca^+2 antagonist activity of the compound is presented in terms of percent relaxation of aortic tissue (P.R.) at 10^-5 M concentration. […] Inhibition of superprecipitation (Antag. of Actin-Myosin interaction) is expressed as percent inhibition (mean±standard error of the mean for at least 3 separate experiments) at a compound concentration. In the same manner, inhibition of myosin light chain phosphorylation (Antag. of MLCP) is expressed as a percent inhibition at a compound concentration. Similarly, the antihypertensive activity is reported in terms of millimeters mercury (mmHg) systolic blood pressure (B.P.) reduction at the stated time post 50 mg/kg oral dosing or other dosing as indicated.

Test [2] has as its system Ca^+2 -calmodulin dependent myosin light chain phosphorylation. Put plainly: inhibition of Ca^+2-calmodulin dependent myosin light chain phosphorylation (MLCP). In kind it is biochemical. On the procedure:
(§2) The data reported herein was obtained at a six minute time-point rather than the 1.5, 5 and 12 minute time points indicated in the superprecipitation assay of the Silver et al. paper.
as §1

Test [3] has as its system arterial actin-myosin interactions. The test can be described thus: inhibition of superprecipitation (antagonism of arterial actin-myosin interaction). The class given is biochemical. The conditions noted are these: six minute time-point, mean±SEM. On the procedure: as §2, §1
Test [4] relates to spontaneously hypertensive rats. The test can be described thus: decrease in systolic blood pressure of spontaneously hypertensive rats. The class given is in vivo, rat.

The structures appear in SMILES notation.

In the case of `CCOC(=O)C1=C(C)NC(C)=C(C(=O)OC)C1c1cccc([N+](=O)[O-])c1` (centres unmarked) [nitrendipine, reference compound], the “cardiac depression / negative inotropism (in words)” value in test [1] is reported as “direct negative inotropism”.
Regarding `COC(=O)C1=C(C)NC(C)=C(C(=O)OC)C1c1ccccc1[N+](=O)[O-]` [nifedipine, reference compound], the “cardiac depression / negative inotropism (in words)” value in test [1] is “direct negative inotropism”.
For `COc1ccc(CCN(C)CCCC(C#N)(c2ccc(OC)c(OC)c2)C(C)C)cc1OC` (centres unmarked) [Verapamil, reference compound], the “cardiac depression / negative inotropism (in words)” value in test [1] is listed as “direct negative inotropism”.
In the case of `COC(COC(=O)C1=C(C)NC2=C(C(=O)CNC2)C1c1cccc(Cl)c1Cl)c1ccccc1` (centres unmarked) [Example 1, 4-(2,3-Dichlorophenyl)-1,4,5,6,7,8-hexahydro-2-methyl-5-oxo-1,7-naphthyridine-3-carboxylic acid 2-methoxy-2-phenylethyl ester], the “inhibition of myosin light chain phosphorylation (Antag. of MLCP)” value (“inhibition … (Antag. of MLCP)” for short) in test [2] (25 μM) was found to be 38±3%; in test [2] (50 μM) it was 66%; in test [2] (100 μM), 76±2%. The “inhibition of superprecipitation (Antag. of Actin-Myosin)” value (“inhibition of superprecipitation” for short) in test [3] (25 μM) is listed as 43±2%; in test [3] (50 μM), 75±3%; in test [3] (100 μM) it was 83±3%. The “systolic blood pressure (B.P.) reduction” value in test [4] (50 mg/kg oral, 1.5 hours) is reported as -53 mmHg; in test [4] (50 mg/kg oral, 4 hours) it was -30 mmHg.
As to `CC1=C(C(=O)OC(C)COc2ccccc2)C(c2c(F)c(F)c(F)c(F)c2F)C2=C(CNCC2=O)N1` (centres unmarked) [Example 13, 1,4,5,6,7,8-Hexahydro-2-methyl-5-oxo-4-(pentafluorophenyl)-1,7-naphthyridine-3-carboxylic acid 1-methyl-2-phenoxyethyl ester], the figures for the “inhibition … (Antag. of MLCP)” value in test [2] (25 μM) and in test [2] (100 μM) were 58% and 70%, respectively. Further, the “inhibition of superprecipitation” value was determined as 61% in test [3] (25 μM) and 78% in test [3] (100 μM). In addition, the “systolic blood pressure (B.P.) reduction” value in test [4] (50 mg/kg oral, 1.5 hours) was -35 mmHg; in test [4] (50 mg/kg oral, 4 hours) it was -60 mmHg.
In the case of `CC1=C(C(=O)OCCOc2ccccc2)C(c2c(F)ccc(Cl)c2Cl)C2=C(CNCC2=O)N1` (centres unmarked) [Example 24, 4-(2,3-Dichloro-6-fluorophenyl)-1,4,5,6,7,8-hexahydro-2-methyl-5-oxo-1,7-naphthyridine-3-carboxylic acid 2-phenoxyethyl ester], the “inhibition … (Antag. of MLCP)” value was found to be 8±2% in test [2] (25 μM), 50±2% in test [2] (50 μM) and 68±1% in test [2] (100 μM). In addition, the “inhibition of superprecipitation” value came out at 9±2% in test [3] (25 μM), 54±3% in test [3] (50 μM) and 72±1% in test [3] (100 μM). Also, the “systolic blood pressure (B.P.) reduction” value in test [4] (5 mg/kg, 1.5 hours) is on record as -17 mmHg; in test [4] (5 mg/kg, 4 hours) it was -26 mmHg; in test [4] (10 mg/kg, 1.5 hours) it was -6 mmHg; in test [4] (10 mg/kg, 4 hours), -26 mmHg; in test [4] (25 mg/kg, 1.5 hours), -50 mmHg; in test [4] (25 mg/kg, 4 hours), -70 mmHg.
Take `CC1=C(C(=O)OCCOc2ccccc2)C(c2ccccc2C)C2=C(CNCC2=O)N1` (centres unmarked) [Example 15, 1,4,5,6,7,8-Hexahydro-2-methyl-4-(2-methylphenyl)-5-oxo-1,7-naphthyridine-3-carboxylic acid 2-phenoxyethyl ester]: the “inhibition … (Antag. of MLCP)” value in test [2] (100 μM) stood at 61±5%. Moreover, the “inhibition of superprecipitation” value in test [3] (100 μM) is given as 66±5%. The “systolic blood pressure (B.P.) reduction” value is listed as -29 mmHg in test [4] (25 mg/kg, 1.5 hours) and -39 mmHg in test [4] (25 mg/kg, 4 hours).
As for `CCOC(=O)C1=C(C)NC(C)=C(C(=O)OC)C1c1cccc(Cl)c1Cl` (centres unmarked) [felodipine], the “cardiac depression / negative inotropism (in words)” value in test [1] is on record as “direct negative inotropism”. In addition, the IC25 in test [1] (Oryctolagus cuniculus, 3 Hz, cumulative 10^-9 M to 10^-5 M, read-out: IC25 (concentration which produces 25% inhibition of isometric force)) worked out at 800 nM.
